{"source": "patent US20220370368A1", "about": "“ORAL PHARMACEUTICAL COMPOSITION COMPRISING A MELT-AGGLOMERATED ACTIVE INGREDIENT CORE” (Hermes Pharma GmbH, priority 2019, published 2022)", "test": "Angle of repose according to Ph.Eur. chapter 2.9.36", "type": "physicochemical", "settings": "prior to agglomeration", "text": "Any flow property provisions such as “passable”, “poor” or “very poor” as used herein shall be understood as flow properties measured and ranked according to pharmacopoeial standards (e.g. European Pharmacopoeia, 6th edition, chapter 2.9.36) unless where specified otherwise: […]", "data": [{"molecule": "CN(C)CCOC(c1ccccc1)c1ccccc1.Cn1c(=O)c2[nH]c(Cl)nc2n(C)c1=O", "note": "[Dimenhydrinate]", "values": [{"measurement": "Angle of repose", "value": 52, "unit": "°"}]}]}
